# Reference: patent US8993721B2, “Peptides for targeting apoptotic cells and uses thereof” (Kyungpook National University Industry-Academic Cooperation …, priority 2008, dated 2015)
# “Also recorded” adds a separate entry of the source.
# Tests used:
# [1] = tested on: etoposide-treated apoptotic A549 cells; assay: FACS analysis of binding to apoptotic cells (Example 3-3); type: cell-based, human
# Method: As another way of confirming the binding of the peptide of the present invention to apoptotic cells, apoptotic cells were treated with the peptide of the present invention, labeled with fluorescein, and the binding was confirmed through FACS analysis. […] The apoptotic cells or normal cells were reacted with ApoPep-1 (5 μM), ApoPep-2 (10 μM) or a control peptide at the same concentrations, labeled with fluorescein, at 4° C. for 1 hour. Further, the cells were reacted with fluorescein-labeled annexin V at room temperature for 15 minutes. After staining the cells with propodium iodide (PI) simultaneously, followed by washing with PBS, FACS analysis was performed using a FACS instrument (Becton Dickinson).
# [2] = tested on: etoposide-treated apoptotic A549 cells; assay: FACS analysis of binding to apoptotic cells (Example 9-3); type: cell-based, human
# Method: As another way of confirming the binding of the polypeptide of the present invention (ApoPep-2) to apoptotic cells, apoptotic cells were treated with the peptide, labeled with fluorescein, and the binding was confirmed through FACS analysis. First, apoptosis was induced by treating A549 cells with 50 μM etoposide for 20 hours. The apoptotic cells or normal cells were reacted with ApoPep-2 (10 μM) or a control peptide at the same concentration, labeled with fluorescein, at 4° C. or 37° C. for 1 hour. Further, the cells were reacted with fluorescein-labeled annexin V at room temperature for 15 minutes. After washing cells with PBS, FACS analysis was performed using a FACS instrument (Becton Dickinson).
# [3] = tested on: brain of stroke rat (middle cerebral artery occlusion/reperfusion); assay: Molecular imaging of stroke (Example 6); type: in vivo; conditions: Cy7.5-labeled peptide 50 μM i.v.; one and three hours
# Method: A stroke model was established by occluding the left middle cerebral artery of a rat for 2 hours, followed by reperfusion. Two hours after the reperfusion, the peptide having an amino sequence represented by SEQ ID NO: 1 (ApoPep-1) and a control peptide, labeled with Cy7.5 NIR fluorescence, was intravenously injected at a final concentration of 50 μM to the stroke rat and a normal rat through the tail vein, under isoflurane anesthesia. One and three hours after the intravenous injection, NIR images of the head portion were obtained. Further, NIR fluorescence images of the brains of the rats of the 3 hour group were obtained.
# [4] = tested on: apoptotic cells in A549 tumor tissue xenotransplanted under the skin of nude mouse; assay: Histological analysis of tumor targeting (Example 2); type: in vivo; conditions: fluorescein-labeled peptide, tail vein, 50 μM final, 2 hours circulation; cryosections
# Method: All animal experiments were performed in accordance with the guideline of the Institutional Animal Care and Use Committee. For tumor xenotransplantation, human lung cancer cells (A549, 1×10^7 cells) suspended in RMPI-1640 medium was subcutaneously injected at the right upper or lower limb of a 6-week-old male BALB/c nude mouse (Hyochang Science). Then, 3 weeks were given for the tumor to grow to a size of 0.5 to 1 cm. The A549 cell line used in the experiment was cultured in RMPI-1640 medium containing 10% fetal bovine serum (FBS) in which antibiotics (penicillin and streptomycin) were included. Subculturing was performed every 3 or 4 days.
# The peptides used in the present invention were fluorescein-attached form at the N-terminal. They were synthesized according to the standard Fmoc technique and then isolated through HPLC. The peptide synthesis was performed by an expertise company (Peptron).
# The peptide of the present invention (ApoPep-1) or a control peptide (amino acid sequence: NSSSVDK), labeled with fluorescein, was injected into the tail vein of a mouse under isoflurane anesthesia, to a final concentration of 50 μM, and 2 hours was given for circulation.
# For histological analysis, the mouse was anesthetized and the abdomen was cut open. After sequentially perfusing phosphate-buffered saline (PBS) and 4% paraformaldehyde through the heart, tumor tissues and organs were removed. Each tissue was cryosected and the peptide of the present invention was observed under a fluorescence microscope (Zeiss). Apoptosis in the tumor tissue was confirmed by TUNEL ([…] terminal deoxynucleotidyl transferase-mediated dUTP nick-end labeling) assay according to the instructions of the manufacturer (Chemicon). Fibrinogen staining was performed by immunohistochemistry using anti-fibrinogen antibody (Abcam) and secondary antibody labeled with Alexa 568, a red fluorescent reagent.
# [5] = tested on: A549 tumor xenotransplanted in nude mice; assay: In vivo fluorescence imaging of targeting of apoptotic cells in tumor (Example 10); design: species or system mouse
# Method: Nude mice in which tumor was xenotransplanted using A549 cells were prepared as in Example <8-1>. The mice were grouped into a doxorubicin (Sigma) treated group (Dox+) and untreated group (Dox−). The treated group was treated with doxorubicin (5 mg/kg) one time, 12 hours prior to injection of the peptide. At the tail vein of each mouse, the polypeptide of the present invention or a control peptide, labeled with fluorescein or Cy7.5 near-infrared fluorescent dye, was injected at a final concentration of 50 μM, under isoflurane anesthesia. Following the injection, in vivo fluorescence images were obtained 0.5 hours and every hour, from 1 hour to 4 hours, after the injection, using an Optix exPlore instrument (ART). The images were standardized using the software provided with the instrument.
# [6] = tested on: A549 tumor xenotransplanted in nude mice; assay: In vivo fluorescence imaging of targeting of apoptotic cells in tumor (Example 4-1); design: species or system mouse; conditions: +Dox (10 mg/kg, 3 times); fluorescein-labeled peptide 50 μM
# Method: Nude mice in which tumor was xenotransplanted using A549 cells were prepared as in Example <2-1>. The mice were grouped into a doxorubicin (Sigma) treated group (+Dox) and untreated group (−Dox). The treated group was treated with doxorubicin (10 mg/kg) 3 times, with an interval of 48 hours, a week prior to injection of the peptide. At the tail vein of each mouse, the peptide of the present invention or a control peptide, labeled with fluorescein, was injected at a final concentration of 50 μM, under isoflurane anesthesia. Following the injection, in vivo fluorescence images were obtained every hour, from 1 hour to 6 hours after the injection, using an Optix exPlore instrument (GE Healthcare). The images were standardized using the software provided with the instrument.
# Further, when the tumor grew considerably (1 cm or larger in diameter), the peptide of the present invention was injected at the same concentration as above, without doxorubicin treatment, and in vivo fluorescence images were obtained at every given time using an IVIS fluorescence imaging system (Chemipro).
# [7] = tested on: etoposide-treated apoptotic cells (A549, H460, HeLa, L132, RAW); assay: Microscopic observation of binding of the peptide to apoptotic cells (Example 3-1); type: cell-based; conditions: 10 μM fluorescein-labeled peptide 4° C. 1 hour
# Method: Cells were cultured in chamber slide (Nalgene Nunc) and treated with 50 μM etoposide (Sigma) for a given period of time (A549 and HeLa cells: for 15 hours, H460 cells: 24 hours, L132 cells: 3 hours, RAW cells: 6 hours) to induce apoptosis. The cells were cultured in RMPI-1640 medium (A549 and H460 cells) or DMEM (HeLa, L132 and RAW cells) containing antibiotics (penicillin and streptomycin) and 10% FBS. All the cells were subcultured every 3 or 4 days. The apoptosis-induced apoptotic cells were washed with PBS and blocked with 1% BSA at 37° C. for 30 minutes. Then, the cells were reacted with 10 μM of the peptide labeled with fluorescein, at 4° C. for 1 hour. After washing, the cells were reacted with an annexin V reaction buffer containing Alexa594-labeled annexin V (Molecular Probes), at room temperature for 15 minutes. The cells were washed with PBS and then fixed with 4% paraformaldehyde for 5 minutes. Thereafter, after counterstaining using the nuclear stain 4′,6-diamidino-2-phenylindole (DAPI), followed by treatment with a mounting solution (Molecular Probes), images of the cells were obtained under a fluorescence microscope (Zeiss).
# apoptotic A549 cells [8] = assay: Competitive inhibition of binding to apoptotic cells by annexin V treatment (Example 9-2); type: cell-based, human; conditions: pre-treatment at 0, 500 and 1000 μM; high concentration
# Method: (§1) In order to further investigate the binding properties of the polypeptide of the present invention (ApoPep-2) to apoptotic cells, competitive inhibition by annexin V was measured. To this end, first, apoptotic A549 cells were pre-treated with annexin V, not labeled with fluorescence, at concentrations of 0, 500 and 1000 μM. Then, after reacting the cells with fluorescence-labeled annexin V under the same condition as described in Example <9-1>, the binding of the cells was observed under a fluorescence microscope.
# (§2) Further, apoptotic A549 cells were pre-treated with annexin V, not labeled with fluorescence, at a concentration of 1000 μM. Then, after reacting the cells with fluorescence-labeled peptide under the same condition as described in Example <9-1>, the binding of the cells was observed under a fluorescence microscope.
# [9] = tested on: trail-treated apoptotic MDA-MB231 cells; assay: Microscopic observation of binding of the peptide to apoptotic cells, MDA-MB231 (Example 9-1); type: cell-based; conditions: Alexa594-annexin V
# Method: (§3) Cells were cultured in chamber slide (Nunc) and treated with 50 μM etoposide (Sigma) for 16 hours (A549 cells) or 50 ng/ml trail (R&D Systems) for 16 hours (MDA-MB231 cells) to induce apoptosis. The cells were cultured in RMPI-1640 medium (A549 cells) or DMEM-High (MDA-MB231 cells) containing antibiotics (penicillin and streptomycin) and 10% FBS. All the cells were sub-cultured every 3 or 4 days. The apoptosis-induced apoptotic cells were washed with PBS and blocked with 1% BSA at 37° C. for 30 minutes. Then, the cells were reacted with 10 μM of the peptide labeled with fluorescein, at 4° C. for 1 hour. After washing, the cells were reacted with an annexin V reaction buffer containing Alexa594-labeled annexin V (Invitrogen) at room temperature for 15 minutes. The cells were washed with PBS and then fixed with 4% paraformaldehyde for 5 minutes. After treatment with a mounting solution containing the DAPI nuclear stain, images of the cells were obtained under a fluorescence microscope.
# [10] = tested on: etoposide-treated apoptotic A549 cells; assay: Microscopic observation of binding of the peptide to apoptotic cells, A549 (Example 9-1); type: cell-based, human; conditions: Alexa594-annexin V
# Method: as §3
# apoptotic A549 cells [11] = assay: Competitive inhibition of binding to apoptotic cells by annexin V treatment (Example 3-2); type: cell-based, human; conditions: pre-treatment at 0, 200 and 1000 μM; high concentration
# Method: as §1, with “peptide” for “polypeptide”, “(ApoPep-1)” for “(ApoPep-2)”, “200” for “500”, “[…].” for “1000 μM.”, “<3-1>,” for “<9-1>,”
# as §2, with “<3-1>,” for “<9-1>,”
# [12] = tested on: H460 tumor xenotransplanted in nude mice; assay: Radionuclide (micro PET) imaging of targeting of apoptotic cells in tumor (Example 4-2); type: in vivo, mouse; conditions: 1 hour after injection
# Method: Nude mice in which tumor was xenotransplanted using H460 cells were prepared as in Example <2-1>. The mice were grouped into a doxorubicin (Sigma) treated group and untreated group. The treated group was treated with doxorubicin (10 mg/kg) 3 times, with an interval of 48 hours, a week prior to injection of the peptide. The peptide of the present invention (ApoPep-1), labeled with the radioactive isotope ^124I, was injected through the tail vein of each mouse under isoflurane anesthesia (treated group: 91 μCi; untreated group: 93 μCi). Further, ^18F-labeled FDG, which is frequently used for PET, was injected to the doxorubicin treated group and untreated group, at 300 μCi and 304 μCi, respectively. Radionuclide images were obtained using a micro PET instrument (Concorde MicroSystems) 5 hours after the injection of [^124I]ApoPep-1 and 1 hour after the injection of [^18F]FDG.
# [13] = etoposide 15 hours, fluorescein-annexin V room temperature 15 minutes, PI
substance,measurement,setting,value
"NSSSVDK [control peptide, reference compound]",binding to apoptotic cells (FACS),"[1]; etoposide-treated A549 cells, 4° C. 1 hour",almost nonexistent
same,binding to apoptotic cells (FACS),"[2]; etoposide-treated A549, 10 μM, 4° C. or 37° C.",almost nonexistent or minimal
same,NIR fluorescence at the head portion of the stroke rat,[3],almost nonexistent
same,peptide fluorescence observed in the tumor tissue,[4],hardly observed
same,ex vivo fluorescence signal from the kidney,"[5]; 4 hours after peptide injection, all the groups, renal clearance",strong
same,"fluorescence signal from the tumor, doxorubicin treated group","[5]; Dox+, Cy7.5-labeled peptide 50 μM",targeting was not observed; also recorded: weakly detected
same,"fluorescence signal from the tumor, doxorubicin treated group",[6],weakly detected or almost nonexistent
annexin V: 36 kDa protein that binds to phosphatidylserine; used to detect apoptotic cells [reference compound],"percentage of the cells stained by both annexin V and PI (fraction Q2, later stage of apoptosis)",[1]; [13],9.4%
same,"percentage of the cells stained only by annexin V (fraction Q4, early stage of apoptosis)",[1]; [13],64.3%
same,labeling of normal cells not treated with etoposide,[7]; Alexa594-annexin V,no labeling was observed
same,labeling of etoposide-treated apoptotic cells (fluorescence microscopy),"[7]; 50 μM etoposide, Alexa594-annexin V room temperature 15 minutes",labeling was observed
same,percentage of the cells stained by annexin V,"[2]; etoposide 20 hours, fluorescein-annexin V room temperature 15 minutes",61%
same,fluorescence of labeled annexin V after pre-treatment with unlabeled annexin V,apoptotic A549 cells [8],decreased significantly
same,labeling of trail-treated apoptotic MDA-MB231 cells,"[9]; 50 ng/ml trail 16 hours, 10 μM fluorescein-labeled peptide 4° C. 1 hour",labeling was observed
same,labeling of MDA-MB231 cells not treated with trail,[9]; 10 μM peptide 4° C. 1 hour,no labeling was observed
same,labeling of A549 cells not treated with etoposide,[10]; 10 μM peptide 4° C. 1 hour,no labeling was observed
same,labeling of etoposide-treated apoptotic A549 cells,"[10]; 50 μM etoposide 16 hours, 10 μM fluorescein-labeled peptide 4° C. 1 hour",labeling was observed
same,fluorescence of labeled annexin V after pre-treatment with unlabeled annexin V,apoptotic A549 cells [11],decreased significantly
fluorodeoxyglucose [[^18F]FDG],"PET signal at the tumor site, doxorubicin treated group compared with untreated group",[12],weaker signal
